# “Also recorded” adds a separate entry of the source. Where two headings read alike, the source gives them in different places.
# Key:
# hKOR [1] = molecular target: T1, hKOR (Homo sapiens, UniProt P41145); assay: Receptor binding with [3H]diprenorphine at hKOR
# MM1 (MOR N127C) = molecular target: T2, MM1 (MOR N127C) (Homo sapiens, UniProt P35372, N129C); assay: Receptor binding at MM1 (MOR N127C)
# T2 construct: expressed in transfected cells; host or cells: HEK 293
# humanDOR = humanDOR (Homo sapiens, UniProt P41143); assay: Receptor binding with [3H]diprenorphine at human DOR
# hMOR [2] = molecular target: T3, hMOR (Homo sapiens, UniProt P35372); assay: Receptor binding with [3H]diprenorphine at hMOR
# hMOR + Gqi5 = molecular target: T4, hMOR + Gqi5 (Homo sapiens, UniProt P35372); assay: IP accumulation assay, hMOR + Gqi5; format: cell-based; details: % morphine
# T4 construct: expressed in transfected cells
# hMOR [3] = molecular target: T3, hMOR; assay: Radioligand binding studies (Example 6) at hMOR
# Protocol: (§1) For a primary screen of selected molecules, binding to μOR was assessed by measuring competition against the radioligand ^3H-diprenorphine (^3H-DPN). […] The reaction contained 40 fmol of μOR and was incubated in a buffer of 20 mM HEPES pH 7.5, 100 mM sodium chloride, and 0.1% bovine serum albumin for 1 hour at 25° C. To separate free from bound radioligand, reactions were rapidly filtered over Whatman GF/B filters with the aid of a Brandel harvester and ^3H-DPN counts were measured by liquid scintillation. […] Subsequently, the 8 compounds were tested in full dose-response for affinity at the μOR and the κOR by the National Institutes of Mental Health Psychoactive Drug Screen Program (PDSP), as were the affinities of the compounds at the μOR, δOR, κOR, and the nociception receptor.
# hKOR [4] = molecular target: T1, hKOR; assay: Radioligand binding studies (Example 6) at hKOR
# Protocol: as §1
# hDOR = hDOR (Homo sapiens, UniProt P41143); assay: Radioligand binding studies (Example 6) at hDOR
# Protocol: as §1
# μOR [5] = molecular target: T5, μOR (Homo sapiens, UniProt P35372); assay: BRET-based cAMP accumulation assay (SAR of PZM21-29); format: cell-based; details: for loss of potency: compared to parent reference compound (PZM22)
# κOR = molecular target: T6, κOR (Homo sapiens, UniProt P41145); assay: Radioligand binding at κOR (PDSP); details: for κOR Ki, given as percentage: <50% instead of a Ki
# T6 construct: NIMH Psychoactive Drug Screening Program (PDSP)
# μOR [6] = molecular target: T5, μOR; assay: cell-based; format: cell-based; details: for EC50: ND = not detectable under these experimental conditions
# μOR [7] = molecular target: T5, μOR; assay: biochemical; format: binding; design: expressed in transfected cells; host or cells: HEK293 membranes (Ki); Sf9 insect cell membranes (single-point screen); PDSP for analogs
# Protocol: For a primary screen of selected molecules, binding to OR was assessed by measuring competition against the radioligand ^3H-diprenorphine (^3H-DPN). […] The reaction contained 40 fmol of μOR and was incubated in a buffer of 20 mM HEPES pH 7.5, 100 mM sodium chloride, and 0.1% bovine serum albumin for 1 hour at 25° C. To separate free from bound radioligand, reactions were rapidly filtered over Whatman GF/B filters with the aid of a Brandel harvester and ^3H-DPN counts were measured by liquid scintillation.
# nociceptin receptor = molecular target: T7, nociceptin receptor (Homo sapiens, UniProt P41146); assay: Gi/o Glosensor assay at nociceptin receptor; format: cell-based; details: ND = not detectable
# T7 construct: NIMH Psychoactive Drug Screening Program (PDSP)
# μOR [8] = molecular target: T5, μOR; assay: β-arrestin2 recruitment, PathHunter assay; format: cell-based
# [9] = PZM analogs, (n) = number of independent experiments, read-out: binding affinity Ki hKOR
# [10] = (n) = number of independent experiments, read-out: binding affinity Ki MM1 (MOR N127C)
# [11] = PZM analogs, (n) = number of independent experiments, read-out: binding affinity Ki hDOR
# [12] = PZM analogs, (n) = number of independent experiments, read-out: binding affinity Ki hMOR
# [13] = ± SD (two experiments) or SEM, (n) experiments, read-out: hKOR [3H]dyprenorphine Ki
# [14] = ± SD (two experiments) or SEM, (n) experiments, read-out: humanDOR [3H]dyprenorphine Ki
# [15] = ± SD (two experiments) or SEM, (n) experiments, read-out: hMOR [3H]dyprenorphine Ki
# [16] = analogs, full dose-response, read-out: μOR Ki
# [17] = κOR Ki (μM), analogs, full dose-response
# Sequence of humanDOR (P41143 whole entry): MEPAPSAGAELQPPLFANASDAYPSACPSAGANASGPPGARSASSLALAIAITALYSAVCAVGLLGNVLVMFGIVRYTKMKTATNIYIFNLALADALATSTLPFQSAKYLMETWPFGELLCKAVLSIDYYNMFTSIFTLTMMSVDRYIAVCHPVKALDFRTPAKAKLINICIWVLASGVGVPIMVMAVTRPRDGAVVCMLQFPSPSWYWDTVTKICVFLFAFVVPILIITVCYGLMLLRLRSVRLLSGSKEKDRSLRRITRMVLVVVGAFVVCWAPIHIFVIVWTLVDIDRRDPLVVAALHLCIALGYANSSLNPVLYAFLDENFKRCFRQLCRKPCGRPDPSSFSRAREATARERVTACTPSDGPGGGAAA
# Sequence of hDOR (P41143 whole entry): as above
# T1 sequence (P41145 whole entry): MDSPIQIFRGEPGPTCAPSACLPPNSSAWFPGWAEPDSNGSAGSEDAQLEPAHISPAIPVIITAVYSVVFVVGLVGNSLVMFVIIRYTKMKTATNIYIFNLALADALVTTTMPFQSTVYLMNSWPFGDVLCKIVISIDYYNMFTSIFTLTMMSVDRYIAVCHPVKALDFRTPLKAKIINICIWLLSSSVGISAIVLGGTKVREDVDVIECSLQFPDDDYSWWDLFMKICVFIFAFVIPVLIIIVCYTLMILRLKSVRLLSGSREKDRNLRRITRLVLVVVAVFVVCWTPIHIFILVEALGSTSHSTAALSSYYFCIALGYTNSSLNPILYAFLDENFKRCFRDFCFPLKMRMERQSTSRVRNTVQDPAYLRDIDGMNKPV
# T6 sequence (P41145 whole entry): as above
# T2 sequence (P35372 whole entry N129C): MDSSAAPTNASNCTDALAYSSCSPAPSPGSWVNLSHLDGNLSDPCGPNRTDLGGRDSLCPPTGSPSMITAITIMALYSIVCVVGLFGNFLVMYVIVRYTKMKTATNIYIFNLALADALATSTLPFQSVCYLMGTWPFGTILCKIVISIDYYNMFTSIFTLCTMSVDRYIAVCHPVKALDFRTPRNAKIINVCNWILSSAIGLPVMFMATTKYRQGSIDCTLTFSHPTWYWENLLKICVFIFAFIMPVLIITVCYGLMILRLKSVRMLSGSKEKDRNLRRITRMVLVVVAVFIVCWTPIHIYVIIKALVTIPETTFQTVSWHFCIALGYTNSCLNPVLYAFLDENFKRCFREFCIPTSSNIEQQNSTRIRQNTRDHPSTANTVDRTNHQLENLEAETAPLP
# T4 sequence (P35372 whole entry): as the sequence (P35372 whole entry N129C) above, with C129N counted along it
# T5 sequence (P35372 whole entry): as the sequence (P35372 whole entry N129C) above, with C129N counted along it
# T3 sequence (P35372 whole entry): as the sequence (P35372 whole entry N129C) above, with C129N counted along it
# T7 sequence (P41146 whole entry): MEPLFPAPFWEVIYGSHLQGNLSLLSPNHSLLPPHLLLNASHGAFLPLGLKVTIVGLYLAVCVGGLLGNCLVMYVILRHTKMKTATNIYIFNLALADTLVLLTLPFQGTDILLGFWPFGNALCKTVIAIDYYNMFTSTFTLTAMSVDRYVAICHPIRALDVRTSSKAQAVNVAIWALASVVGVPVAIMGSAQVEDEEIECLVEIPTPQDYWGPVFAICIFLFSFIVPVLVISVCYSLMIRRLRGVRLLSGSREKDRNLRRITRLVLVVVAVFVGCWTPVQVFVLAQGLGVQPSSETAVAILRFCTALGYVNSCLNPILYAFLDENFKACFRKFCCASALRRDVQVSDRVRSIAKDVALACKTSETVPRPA
compound,measurement,setting,value
C[C@@H](Cc1ccsc1)NC(=O)NC[C@H](Cc1ccc(O)nc1)N(C)C,Ki,hKOR [1]; [9],12000 nM
same,Ki,MM1 (MOR N127C); [10],3800 nM
same,Ki,humanDOR; [11],> 20000 nM
same,Ki,hMOR [2]; [12],4600 nM
CN(C)[C@H](CNC(=O)NCCN1C(=O)C=CC1=O)Cc1ccc(O)cc1,Ki,hKOR [1]; [9],600 nM
same,Ki,MM1 (MOR N127C); [10],3.7 nM
same,Ki,humanDOR; [11],450 nM
same,Ki,hMOR [2]; [12],240 nM
CN(C)[C@H](CNC(=O)NCCCN1C(=O)C=CC1=O)Cc1ccc(O)cc1,Ki,hKOR [1]; [9],450 nM
same,Ki,MM1 (MOR N127C); [10],4.7 nM
same,Ki,humanDOR; [11],3100 nM
same,Ki,hMOR [2]; [12],380 nM
CN(C)[C@H](CNC(=O)NCCCCN1C(=O)C=CC1=O)Cc1ccc(O)cc1,Ki,hKOR [1]; [9],760 nM
same,Ki,MM1 (MOR N127C); [10],5.9 nM
same,Ki,humanDOR; [11],4900 nM
same,Ki,hMOR [2]; [12],1000 nM
Cc1cc(O)cc(C)c1C[C@@H](CNC(=O)NCCN1C(=O)C=CC1=O)N(C)C,Ki,hKOR [1]; [9],200 nM
same,Ki,MM1 (MOR N127C); [10],0.93 nM
same,Ki,humanDOR; [11],150 nM
same,Ki,hMOR [2]; [12],18 nM
C[C@@H](CN1C(=O)C=CC1=O)NC(=O)NC[C@H](Cc1ccc(O)cc1)N(C)C,Ki,hKOR [1]; [9],1200 nM
same,Ki,MM1 (MOR N127C); [10],5.6 nM
same,Ki,humanDOR; [11],860 nM
same,Ki,hMOR [2]; [12],410 nM
C[C@H](CN1C(=O)C=CC1=O)NC(=O)NC[C@H](Cc1ccc(O)cc1)N(C)C,Ki,hKOR [1]; [9],690 nM
same,Ki,MM1 (MOR N127C); [10],0.13 nM
same,Ki,humanDOR; [11],210 nM
same,Ki,hMOR [2]; [12],90 nM
CN(C)[C@H](CNC(=O)NCCc1c[nH]nn1)Cc1ccc(O)cc1,Ki,hKOR [1],1400 nM
same,Ki,MM1 (MOR N127C),630 nM
same,Ki,humanDOR,4700 nM
same,Ki,hMOR [2],960 nM
"CC(Cc1ccsc1)NC(=O)NCC(Cc1ccc(O)cc1)N(C)C (single isomer, unassigned) [BD 122LR]",hMOR + Gqi5 IP accumulation assay efficacy a,hMOR + Gqi5,a: 17%
same,Ki,hKOR [1]; [13],190 nM
same,Ki,humanDOR; [14],88 nM
"CC(Cc1ccsc1)NC(=O)NCC(Cc1ccc(O)cc1)N(C)C (single isomer, unassigned) [BD 122LS]",hMOR + Gqi5 IP accumulation assay efficacy a,hMOR + Gqi5,a: 73%
"Cc1cc(O)cc(C)c1C[C@@H](CNC(=O)N[C@H](C)Cc1ccsc1)N(C)C [BD 131LR, 1-((S)-2-(dimethylamino)-3-(4-hydroxy-2,6-dimethylphenyl)propyl)-3-((R)-1-(thiophen-3-yl)propan-2-yl)urea]",hMOR + Gqi5 IP accumulation assay efficacy a @10 μM,hMOR + Gqi5; @10 μM,@10 μM a: 10%
same,Ki,hKOR [1]; [13],12 nM
same,Ki,humanDOR; [14],17 nM
same,Ki,hMOR [2]; [15],4.1 nM
"Cc1cc(O)cc(C)c1C[C@@H](CNC(=O)N[C@@H](C)Cc1ccsc1)N(C)C [BD 131LS, 1-((S)-2-(dimethylamino)-3-(4-hydroxy-2,6-dimethylphenyl)propyl)-3-((S)-1-(thiophen-3-yl)propan-2-yl)urea]",hMOR + Gqi5 IP accumulation assay efficacy a,hMOR + Gqi5,a: <5%
same,Ki,hKOR [1]; [13],6.5 nM
same,Ki,humanDOR; [14],85 nM
same,Ki,hMOR [2]; [15],12 nM
"C[C@@H](Cc1ccsc1)NC(=O)NC[C@@H]1Cc2ccc(O)cc2CN1C [DD118, 1-(((S)-7-hydroxy-2-methyl-1,2,3,4-tetrahydroisoquinolin-3-yl)methyl)-3-((S)-1-(thiophen-3-yl)propan-2-yl)urea]",Ki,hMOR [3],150 nM
same,Ki,hKOR [4],110 nM
same,Ki,hDOR,150 nM
"COc1cc(F)ccc1CCNC(=O)NC[C@H](Cc1ccc(O)cc1)N(C)C [DD214, (S)-1-(2-(dimethylamino)-3-(4-hydroxyphenyl)propyl)-3-(4-fluoro-2-methoxyphenethyl)urea]",Ki,hMOR [3],42 nM
same,Ki,hKOR [4],170 nM
same,Ki,hDOR,390 nM
"COc1ccc(C[C@@H](CNC(=O)N[C@@H](C)Cc2ccsc2)N(C)C)cc1 [DD222, 1-((S)-2-(dimethylamino)-3-(4-methoxyphenyl)propyl)-3-((S)-1-(thiophen-3-yl)propan-2-yl)urea]",Ki,hMOR [3],390 nM
same,Ki,hKOR [4],460 nM
same,Ki,hDOR,5900 nM
"CN[C@H](CNC(=O)NCCc1ccc(F)cc1OC)Cc1ccc(O)cc1 [DD229, (5)-1-(4-fluoro-2-methoxyphenethyl)-3-(3-(4-hydroxyphenyl)-2-(methylamino)propyl)urea]",Ki,hMOR [3]; read-out: Binding affinities hMOR [3H]dyprenorph,130 nM
same,Ki,hKOR [4]; read-out: Binding affinities hKOR [3H]dyprenorph,320 nM
same,Ki,hDOR; read-out: Binding affinities hDOR [3H]dyprenorph,480 nM
"CC(=O)Oc1ccc(C[C@@H](CNC(=O)N[C@@H](C)Cc2ccsc2)N(C)C)cc1 [DD230, 4-((S)-2-(dimethylamino)-3-(3-((S)-1-(thiophen-3-yl)propan-2-yl)ureido)propyl)phenyl acetate]",Ki,hMOR [3],240 nM
same,Ki,hKOR [4],250 nM
same,Ki,hDOR,920 nM
"CN(C)[C@H](CNc1c(NCCc2ccccc2)c(=O)c1=O)Cc1ccc(O)cc1 [DD247, (S)-3-((2-(dimethylamino)-3-(4-hydroxyphenyl)propyl)amino)-4-(phenethylamino)cyclobut-3-ene-1,2-dione]",Ki,hMOR [3],320 nM
same,Ki,hKOR [4],310 nM
same,Ki,hDOR,2900 nM
"C[C@@H](Cc1ccsc1)Nc1c(NC[C@H](Cc2ccc(O)cc2)N(C)C)c(=O)c1=O [DD251, 3-(((S)-2-(dimethylamino)-3-(4-hydroxyphenyl)propyl)amino)-4-(((S)-1-(thiophen-3-yl)propan-2-yl)amino)cyclobut-3-ene-1,2-dione]",Ki,hMOR [3],33 nM
same,Ki,hKOR [4],16 nM
same,Ki,hDOR,650 nM
"CN(C)[C@H](CNc1nc(=O)cc(Cc2ccccc2)[nH]1)Cc1ccc(O)cc1 [DD258, (S)-6-benzyl-2-((2-(dimethylamino)-3-(4-hydroxyphenyl)propyl)amino)pyrimidin-4(1H)-one]",Ki,hMOR [3],290 nM
same,Ki,hKOR [4],350 nM
same,Ki,hDOR,390 nM
"CN(CC1CC1)[C@H](CNC(=O)NCCc1ccccc1)Cc1ccc(O)cc1 [PZM27, (S)-1-(2-((Cyclopropylmethyl)(methyl)amino)-3-(4-hydroxyphenyl)propyl)-3-phenethylurea x CF3COOH]",efficacy and potency as agonist (in words),μOR [5],decreased efficacy
same,loss of potency,μOR [5],30 fold
"CN(C=O)[C@H](CNC(=O)NCCc1ccccc1)Cc1ccc(O)cc1 [PZM28, (S)—N-(1-(4-Hydroxyphenyl)-3-(3-phenethylureido)propan-2-yl)-N-methylformamide]",loss of potency,μOR [5],1000 fold
CC(C)[C@H](CNC(=O)c1ccc([N+](=O)[O-])s1)N1CCc2ccccc2C1 [compound 8],Ki,"κOR; analogs, full dose-response, read-out: κOR Ki",0.46 µM
same,EC50,μOR [6]; read-out: μOR Gi EC50,6.6 µM
same,Ki,μOR [7]; [16],820 nM
O=C(Cc1cn2ccccc2n1)NCC1(c2ccccc2)CCC1 [compound 9],Ki,κOR; [17],1.36 µM
same,"μOR Ki column, given as percentage",μOR [7]; <50% instead of a Ki,<50%
CN(Cc1nnc(C2CC2)n1C)C(=O)NC[C@@H](Cc1ccccc1)N(C)C [compound 10],"κOR Ki, given as percentage",κOR,<50%
same,Ki,μOR [7],4750 nM
CN(C)[C@@H](CNC(=O)NC[C@@H](O)c1cnn(C)c1)Cc1ccccc1 [compound 11],"κOR Ki, given as percentage",κOR,<50%
same,Ki,μOR [7]; [16],1860 nM
C[C@H](Cc1ccsc1)NC(=O)NC[C@@H](Cc1ccccc1)N(C)C [compound 12],EC50,nociceptin receptor,1400 nM
same,Ki,κOR; Ki (nM) κOR,0.464 µM
same,Ki,κOR; [17],0.46 µM
same,β-arrestin2 recruitment (in words),μOR [8],undetectable; also recorded: low levels
same,"Gi/o activation, μOR agonist activity (in words)",μOR [6],robust μOR agonist activity; also recorded: strongly activated Gi/o
COc1nc(C)cc(C)c1CNC(=O)NC[C@@H](Cc1ccccc1)N(C)C [compound 13],Ki,κOR; [17],1.02 µM
same,EC50,μOR [6]; μOR Gi EC50 (μM),3.1 µM
same,Ki,μOR [7],550 nM
CN(C)[C@H](CNC(=O)NCc1cccc([N+](=O)[O-])c1)Cc1ccccc1 [compound 14],Ki,κOR; [17],0.51 µM
same,EC50,μOR [6]; μOR Gi EC50 (μM),0.44 µM
same,Ki,μOR [7],87 nM
Cc1nc(CNC(=O)NC[C@@H](Cc2ccccc2)N(C)C)sc1C [compound 15],"κOR Ki, given as percentage",κOR,<50%
same,Ki,μOR [7],130 nM
CN(C)[C@H](CNC(=O)NCCc1cn(CCSSCCN=[N+]=[N-])nn1)Cc1ccc(O)cc1 [drawing 545],Ki,hKOR [1]; [9],1500 nM
same,Ki,MM1 (MOR N127C); [10],34 nM
same,Ki,humanDOR; [11],3900 nM
same,Ki,hMOR [2]; [12],420 nM
"(S)-1-(2-(dimethylamino)-3-(4-hydroxy-2,6-dimethylphenyl)propyl)-3-(2-(thiophen-3-yl)ethyl)urea [DD 34L]",hMOR + Gqi5 IP accumulation assay efficacy a,hMOR + Gqi5,a: <5%
same,Ki,hKOR [1]; [13],27 nM
same,Ki,humanDOR; [14],51 nM
same,Ki,hMOR [2]; [15],6.2 nM

# — US20200109126A1 (priority 2017, published 2020)
